The molecules below were run on primary cultured mouse cortical neurons. Details: 10 μM, pH 6.0, n=8.

Structure (SMILES) | protection against acid-induced neuronal injury (LDH release), analogs
C[C@@]12CCC[C@H]1[C@@H]1C[C@@H](O)[C@@]3(O)C[C@@H](O)CC[C@]3(C)[C@H]1CC2 [Andro-triol, 5α-androst-3β, 5, 6β-triol] | none of them shows significant protection
CC(C)CCC[C@@H](C)[C@H]1CC[C@H]2[C@@H]3C[C@H]4O[C@]45C[C@@H](O)CC[C@]5(C)[C@H]3CC[C@]12C [5β,6β-epoxy-Chol, 5β,6β-epoxycholesterol] | none of them shows significant protection
CC(C)CCC[C@@H](C)[C@H]1CC[C@H]2[C@@H]3C[C@@H]4O[C@@]45C[C@@H](O)CC[C@]5(C)[C@H]3CC[C@]12C [5α,6α-epoxy-Chol, 5α,6α-epoxycholesterol] | none of them shows significant protection

Source: US20240165129A1, “METHODS OF TREATING PAIN AND DEPRESSION” (priority 2022, published 2024)
